Laboratory results taken from ChEMBL document CHEMBL1201862, “PubChem BioAssay data set” (2004).
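All cell lines were grown in 96-well plates and treated with compound for 48 hours. Abbreviation: GI50, concentration required for 50% inhibition of growth.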 The source made the active and inactive calls. No stated cut-off is given here; in the data, active = GI50 up to about 1.1 µM and inactive = higher.

Columns and labels:
Experiment in all cases: growth of human tumour cells (NCI), 48 h
[1] = test system: HOP-62
[2] = test system: SF-539
[3] = test system: RXF 393
[4] = test system: RPMI-8226
[5] = test system: BT-549
[6] = test system: A498
[7] = test system: MCF7
[8] = test system: MDA-MB-435
[9] = test system: COLO 205
[10] = test system: SNB-19
[11] = test system: SF-295
[12] = test system: HL-60
[13] = test system: HCT-15
[14] = test system: CCRF-CEM
[15] = test system: MDA-MB-231
[16] = test system: SNB-75
[17] = test system: SW-620
[18] = test system: SN12C
[19] = test system: Hs-578T
[20] = test system: SF-268

SMILES	GI50 [1]	GI50 [2]	GI50 [3]	GI50 [4]	GI50 [5]	GI50 [6]	GI50 [7]	GI50 [8]	GI50 [9]	GI50 [10]	GI50 [11]	GI50 [12]	GI50 [13]	GI50 [14]	GI50 [15]	GI50 [16]	GI50 [17]	GI50 [18]	GI50 [19]	GI50 [20]
CSC1(SC)N2Cc3ccccc3N=C2C1(c1ccccc1)c1ccccc1	> 44.9 µM (inactive)	12.8 µM (inactive)	9.82 µM (inactive)	5.38 µM (inactive)	> 50.6 µM (inactive)	15.7 µM (inactive)	8.17 µM (inactive)	4.01 µM (inactive)	5.89 µM (inactive)	> 48.3 µM (inactive)	11.1 µM (inactive)	6.08 µM (inactive)	12.1 µM	8.73 µM (inactive)	26.7 µM (inactive)	> 100 µM (inactive)	13 µM (inactive)	20.5 µM (inactive)	29 µM (inactive)	21.3 µM (inactive)
COc1nc(C(Cl)(Cl)Cl)c(Cl)c(OC)c1Cl [PENCLOMEDINE]	12.1 µM (inactive)	40.8 µM (inactive)	36.7 µM (inactive)	24.1 µM (inactive)	38 µM (inactive)	52.6 µM (inactive)	17.7 µM (inactive)	42.5 µM (inactive)	44.1 µM (inactive)	27.3 µM (inactive)	40.2 µM (inactive)	7.46 µM (inactive)	40.6 µM	32.5 µM (inactive)	38.3 µM (inactive)	7.76 µM (inactive)	39.4 µM (inactive)	39 µM (inactive)	33.3 µM (inactive)	36.1 µM (inactive)
